Earlier results in patent publication US20080255132A1, “Combination Therapy Comprising the Use of Et-743 and Paclitaxel for Treating Cancer” (priority 2003, published 2008).

Columns and labels:
[1] = tested on: human tumor xenografts, including melanoma and ovarian and breast carcinoma; conditions: human tumor xenografts grown in athymic mice
[2] = tested on: sarcoma and breast and ovarian carcinoma; conditions: phase I, 1-, 3-, 24-, 72-hour i.v. infusion and 1 hour daily x5 schedules

SMILES: COc1cc2c(cc1O)CCN[C@]21CS[C@@H]2c3c(OC(C)=O)c(C)c4c(c3[C@H](COC1=O)N1[C@@H]2[C@H]2c3c(cc(C)c(OC)c3O)C[C@@H]([C@@H]1O)N2C)OCO4 [ET-743, ecteinascidin 743]
- Antineoplastic activity [1]: potent antineoplastic activity
- Responses [2]: Promising responses
